Measured values reported in publication PMC10527014 (Antiviral research, 2023).
Where two headings read alike, the source gives them in different places.

Key:
Coxsackie B3 Nancy = settings: read-out: 50% Effective concentration EC50, Vero 76, CPE
CYP1A2 = CYP1A2 (Homo sapiens, UniProt P05177); assay: CYP inhibition, CYP1A2; assay type: in vitro ADME; settings: read-out: CYP inhibition
Human plasma stability = assay type: in vitro ADME; settings: @ 5 hr, 37°C
[1] = test system: Human Echovirus-30 Bastianni; assay: Virus yield reduction assay, Human Echovirus-30 Bastianni; assay type: cell-based; settings: read-out: 90% Effective concentration EC90, RD, lowest concentration tested 0.032 μM
EV-D68 = assay: In vitro inhibition of EV-D68; assay type: cell-based; settings: read-out: EC50 against EV-D68; discussion
[2] = test system: EVD68, strain IL/14-18952 (IL52); assay: Preliminary EVD68 inhibition at single concentration, VP1 qPCR in RD cells; assay type: cell-based, EV-D68; settings: 5 μM, preliminary work, Fig. S2
[3] = test system: Human Echovirus-30 Bastianni; settings: read-out: 50% Effective concentration EC50, RD, lowest concentration tested 0.032 μM
Vero = assay: Cytotoxicity; assay type: cell-based; settings: read-out: 50% Cytotoxic concentration CC50, line of Coxsackie B5
Caco-2 = Caco-2 permeability; assay type: in vitro ADME
hERG = hERG (Homo sapiens, UniProt Q12809); assay: hERG inhibition; settings: read-out: hERG inhibition IC50
Chain of hERG (Q12809 whole entry): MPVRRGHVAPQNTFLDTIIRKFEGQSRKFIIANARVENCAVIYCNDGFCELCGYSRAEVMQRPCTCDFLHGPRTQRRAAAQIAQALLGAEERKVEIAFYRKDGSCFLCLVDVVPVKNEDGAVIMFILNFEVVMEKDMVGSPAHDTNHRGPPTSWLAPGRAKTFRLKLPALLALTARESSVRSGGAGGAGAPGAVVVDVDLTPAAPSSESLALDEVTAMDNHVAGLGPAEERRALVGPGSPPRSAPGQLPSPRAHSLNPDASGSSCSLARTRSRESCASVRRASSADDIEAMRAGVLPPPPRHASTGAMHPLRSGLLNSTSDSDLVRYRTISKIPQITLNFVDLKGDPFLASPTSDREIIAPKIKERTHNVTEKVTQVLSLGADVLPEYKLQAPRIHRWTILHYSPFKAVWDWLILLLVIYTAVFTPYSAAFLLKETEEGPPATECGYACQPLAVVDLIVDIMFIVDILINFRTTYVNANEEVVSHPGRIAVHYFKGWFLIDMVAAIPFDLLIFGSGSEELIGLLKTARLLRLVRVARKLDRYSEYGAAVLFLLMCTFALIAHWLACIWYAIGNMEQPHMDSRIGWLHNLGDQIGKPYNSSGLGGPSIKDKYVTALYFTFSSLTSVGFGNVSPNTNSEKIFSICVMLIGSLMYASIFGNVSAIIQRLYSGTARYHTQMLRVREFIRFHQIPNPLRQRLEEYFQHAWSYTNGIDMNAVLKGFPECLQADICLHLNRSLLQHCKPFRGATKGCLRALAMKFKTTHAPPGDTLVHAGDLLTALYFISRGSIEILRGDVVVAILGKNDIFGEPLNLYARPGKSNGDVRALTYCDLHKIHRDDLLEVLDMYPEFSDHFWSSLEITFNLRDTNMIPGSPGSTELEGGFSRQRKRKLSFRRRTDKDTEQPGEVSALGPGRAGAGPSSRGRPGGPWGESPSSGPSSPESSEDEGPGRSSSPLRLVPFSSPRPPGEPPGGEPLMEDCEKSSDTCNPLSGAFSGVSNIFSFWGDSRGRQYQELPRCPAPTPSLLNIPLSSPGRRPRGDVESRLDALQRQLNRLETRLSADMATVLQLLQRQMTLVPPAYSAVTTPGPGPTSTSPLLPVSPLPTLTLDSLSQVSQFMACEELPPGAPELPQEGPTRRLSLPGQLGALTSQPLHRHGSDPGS

EV-71 Tainan/4643/98 [4] = settings: read-out: 50% Effective concentration EC50; EV-71 Tainan/4643/98, Vero 76, CPE
[5] = test system: Human Echovirus-11 Gregory; assay: Virus yield reduction assay, Human Echovirus-11 Gregory; assay type: cell-based; settings: read-out: 90% Effective concentration EC90, RD, lowest concentration tested 0.032 μM
[6] = test system: EV-D68 MP30 PP (mouse-adapted US/MO/14-18949); assay: EV-D68 respiratory infection model in four-week-old AG129 mice; assay type: in vivo
[7] = Human liver microsomes stability; assay type: in vitro ADME
EV-71 Tainan/4643/98 [8] = assay: Virus yield reduction assay, EV-71 Tainan/4643/98; assay type: cell-based; settings: read-out: 90% Effective concentration EC90; EV-71 Tainan/4643/98, Vero 76, virus yield reduction
[9] = test system: Human Echovirus-11 Gregory; settings: read-out: 50% Effective concentration EC50, RD, lowest concentration tested 0.032 μM
mouse-adapted CVB5 = assay: Mouse model of CVB5-induced pancreatitis; assay type: in vivo, BALB/c mice
CYP2D6 = CYP2D6 (Homo sapiens, UniProt P10635); assay: CYP inhibition, CYP2D6; assay type: in vitro ADME; settings: read-out: CYP inhibition
Chain of CYP2D6 (P10635 whole entry): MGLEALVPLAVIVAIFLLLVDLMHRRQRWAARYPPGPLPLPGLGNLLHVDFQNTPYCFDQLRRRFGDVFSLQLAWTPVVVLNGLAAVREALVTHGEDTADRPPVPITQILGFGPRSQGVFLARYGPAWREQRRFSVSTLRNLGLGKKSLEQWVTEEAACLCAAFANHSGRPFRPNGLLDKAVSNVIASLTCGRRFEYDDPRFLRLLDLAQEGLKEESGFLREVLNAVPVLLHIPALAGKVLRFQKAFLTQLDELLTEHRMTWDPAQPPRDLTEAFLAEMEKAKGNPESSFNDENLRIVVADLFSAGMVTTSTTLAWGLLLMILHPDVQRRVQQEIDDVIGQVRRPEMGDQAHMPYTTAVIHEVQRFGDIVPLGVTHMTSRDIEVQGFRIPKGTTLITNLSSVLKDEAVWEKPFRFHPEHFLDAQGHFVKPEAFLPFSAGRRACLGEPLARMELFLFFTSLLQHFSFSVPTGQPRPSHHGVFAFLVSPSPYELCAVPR

Chain of CYP1A2 (P05177 whole entry): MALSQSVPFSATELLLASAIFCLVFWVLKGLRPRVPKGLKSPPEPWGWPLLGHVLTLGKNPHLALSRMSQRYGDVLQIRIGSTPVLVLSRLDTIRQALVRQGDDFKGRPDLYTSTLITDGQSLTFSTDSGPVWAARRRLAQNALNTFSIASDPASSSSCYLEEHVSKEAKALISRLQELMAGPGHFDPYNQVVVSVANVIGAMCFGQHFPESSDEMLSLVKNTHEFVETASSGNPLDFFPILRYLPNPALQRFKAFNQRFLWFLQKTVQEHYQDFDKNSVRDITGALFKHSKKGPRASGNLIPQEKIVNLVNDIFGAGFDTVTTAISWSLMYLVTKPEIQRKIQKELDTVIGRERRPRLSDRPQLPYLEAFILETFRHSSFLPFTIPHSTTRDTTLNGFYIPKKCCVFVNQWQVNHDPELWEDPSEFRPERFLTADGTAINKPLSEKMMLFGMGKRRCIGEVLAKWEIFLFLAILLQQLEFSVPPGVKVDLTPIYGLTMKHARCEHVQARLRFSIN

Cc1cc(-c2noc(C(F)(F)F)n2)ccc1OCCCc1cc(C(=O)N(C)C)no1 [compound 11526092, 3-(3-methyl-4-(3-(3-N,N-dimethylcarbamoyl-isoxazol-5-yl)propoxy)phenyl)-5-trifluoromethyl-1,2,4-oxadiazole]
EC50 (Coxsackie B3 Nancy): 1.27 µM | IC50 (CYP1A2): > 50 µM | Human plasma stability (Human plasma stability): 93.9% @ 5 hr, 37 °C | EC90 [1]: < 0.032 µM | EC50 (EV-D68): 0.059 µM | Antiviral effect in RD cells infected with EV-D68 [2]: greatest antiviral effect | EC50 [3]: < 0.032 µM | CC50 (Vero): 59.1 µM | Caco-2 Efflux ratio (Caco-2): 3.5 | Caco-2 Papp A-B (Caco-2): 880 ×10⁻⁶ cm/s | Caco-2 Papp B-A (Caco-2): 3090 ×10⁻⁶ cm/s | P-gp substrate (in words, from Caco-2 data) (Caco-2): likely a P-gp substrate | IC50 (hERG): > 100 µM | CC50 (Vero 76): 10.8 µM | CC50 (Vero 76; read-out: 50% Cytotoxic concentration CC50, Vero 76, line of Coxsackie B3 HA 201933): 8 µM | CC50 (Vero 76; read-out: 50% Cytotoxic concentration CC50, Vero 76, line of Coxsackie B3 Nancy): 8 µM | CC50 (Vero 76; read-out: 50% Cytotoxic concentration CC50, Vero 76, line of EV-71): 8.25 µM | CC50 (Vero 76; read-out: 50% Cytotoxic concentration CC50, Vero 76, line of SARS-CoV-2): 7.54 µM | EC50 (EV-71 Tainan/4643/98 [4]): 4.24 µM | EC90 [5]: < 0.032 µM | Lung concentration of IFN-γ ([6]; 10 mg/kg, day 1): reductions | Lung concentration of IL-10 ([6]; 10 mg/kg, day 5): increase | Lung virus titer ([6]; 30 mg dose, day 5 p.i., P≤0.05 vs placebo): significant reduction | Lung concentration of MIP-1α ([6]; 30 mg/kg, day 5): increase | Lung concentration of MCP-1 ([6]; 100 mg/kg, day 1): reductions | Lung concentration of IL-1α ([6]; 100 mg/kg, day 3): increase | Lung concentration of IL-1β ([6]; 100 mg/kg, day 3): increase | Lung concentration of IL-4 ([6]; 100 mg/kg, day 3): increase | Lung concentration of IL-6 ([6]; 100 mg/kg, day 3): increase | Protection from weight loss (percentage of initial body weight) ([6]; 100 mg/kg/d PO, P<0.05, Fig. S16): significant protection from weight loss | Decrease of viremia ([6]; abstract): 3 log | Lung concentration of RANTES ([6]; all doses, day 1, P≤0.01 - P≤0.0001): significantly reduced | Lung concentration of GM-CSF ([6]; all doses, day 1, P≤0.01 - P≤0.001): significantly reduced | Lung concentration of IL-3 ([6]; all doses, day 1, P≤0.05): significantly reduced | Lung concentration of IL-5 ([6]; all doses, day 1, P≤0.05): significantly reduced | Virus titers in the blood (viremia) ([6]; all doses, days 1 and 3 p.i., P≤0.0001): reduce viremia | Lung virus titers ([6]; day 3 p.i., this study): did not demonstrate any antiviral activity | Reduction in lung titer ([6]; day 5, abstract): 1 log | Human liver microsomes stability (in words) [7]: metabolically stable | Human liver microsomes T1/2 ([7]; human): 55.3 min | Human liver microsomes clearance ([7]; human): 25.1 μL /min/mg protein | EC90 (EV-71 Tainan/4643/98 [8]): 2.45 µM | EC50 [9]: < 0.032 µM | Relative fold gene expression in the pancreas (qPCR) (mouse-adapted CVB5; 100 mg/kg per day, Fig. 5B): statistically significant (P≤0.05) decrease | Histology of pancreatic tissue (mouse-adapted CVB5; CVB5-infected mice, Fig. S20): no signs of tissue damage | IC50 (CYP2D6): > 50 µM
